Measurements taken from ChEMBL document CHEMBL1765007, “Synthesis and biological evaluation of new 2-alkylaminoethyl-1,1-bisphosphonic acids against Trypanosoma cruzi and Toxoplasma gondii targeting farnesyl diphosphate synthase” (Bioorg Med Chem, 2011).

What was measured:
[1] = target: T1, Farnesyl diphosphate synthase (Trypanosoma cruzi, UniProt Q8WS26); assay: Inhibition of Trypanosoma cruzi FPPS after 30 mins using [14C]IPP by scintillation counting
T1 sequence (Q8WS26 whole entry): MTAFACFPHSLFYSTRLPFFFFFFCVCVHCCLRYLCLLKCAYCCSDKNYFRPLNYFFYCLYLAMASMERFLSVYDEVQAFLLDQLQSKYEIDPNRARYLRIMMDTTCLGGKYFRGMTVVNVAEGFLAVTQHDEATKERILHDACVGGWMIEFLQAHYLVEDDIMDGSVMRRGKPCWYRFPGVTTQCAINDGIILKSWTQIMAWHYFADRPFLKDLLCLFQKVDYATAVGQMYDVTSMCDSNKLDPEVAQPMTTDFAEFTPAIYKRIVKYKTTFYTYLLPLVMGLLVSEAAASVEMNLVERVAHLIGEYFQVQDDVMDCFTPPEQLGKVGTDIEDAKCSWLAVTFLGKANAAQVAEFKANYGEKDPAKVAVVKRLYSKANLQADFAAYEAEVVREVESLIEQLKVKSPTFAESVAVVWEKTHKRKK

[2] = system: Trypanosoma cruzi; assay: Antiparasitic activity against Trypanosoma cruzi amastigotes infected in gamma-irradiated vero cells assessed as growth inhibition by fluorescence assay; type: functional, organism-based; details: light or radiation study
[3] = system: Toxoplasma gondii; assay: Antiparasitic activity against Toxoplasma gondii tachyzoite expressing red fluorescence protein assessed as growth inhibition by fluorescence plate reader; type: functional, organism-based
[4] = target: T2, Farnesyl diphosphate synthase (Toxoplasma gondii, UniProt Q197X6); assay: Inhibition of Toxoplasma gondii FPPS after 30 mins using [14C]IPP by scintillation counting
T2 sequence (Q197X6 whole entry): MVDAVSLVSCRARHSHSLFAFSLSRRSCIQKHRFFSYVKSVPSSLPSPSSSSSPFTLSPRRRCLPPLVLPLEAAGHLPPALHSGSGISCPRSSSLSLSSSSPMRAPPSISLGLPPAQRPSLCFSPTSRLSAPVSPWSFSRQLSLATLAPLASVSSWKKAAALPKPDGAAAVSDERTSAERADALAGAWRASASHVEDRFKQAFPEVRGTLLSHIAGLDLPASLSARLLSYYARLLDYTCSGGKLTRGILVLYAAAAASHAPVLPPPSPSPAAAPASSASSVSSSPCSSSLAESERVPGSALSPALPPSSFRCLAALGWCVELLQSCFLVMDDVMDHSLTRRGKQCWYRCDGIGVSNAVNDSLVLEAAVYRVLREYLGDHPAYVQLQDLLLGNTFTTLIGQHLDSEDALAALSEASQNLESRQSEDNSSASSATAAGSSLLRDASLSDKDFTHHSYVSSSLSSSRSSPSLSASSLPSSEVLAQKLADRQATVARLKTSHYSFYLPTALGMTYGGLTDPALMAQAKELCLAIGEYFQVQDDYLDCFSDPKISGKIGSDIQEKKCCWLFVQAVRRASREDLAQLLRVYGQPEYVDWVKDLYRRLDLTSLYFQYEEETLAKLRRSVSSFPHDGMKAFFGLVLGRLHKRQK

[5] = system: Toxoplasma gondii; assay: Antiparasitic activity against Toxoplasma gondii assessed as growth inhibition; type: functional, organism-based

Row | Compound | IC50 [1] | IC50 [2] | IC50 [3] | IC50 [4] | IC50 [5]
1 | O=P(O)(O)C(CNCc1ccccc1)P(=O)(O)O | > 1000 nM | > 10000 nM | > 10000 nM | – | –
2 | CCCCCCCCCNCC(P(=O)(O)O)P(=O)(O)O | 430 nM | > 10000 nM | > 10000 nM | 440 nM | –
3 | CCCCCCCCCCNCC(P(=O)(O)O)P(=O)(O)O | > 1000 nM | > 10000 nM | > 10000 nM | 68 nM | –
4 | CCCCCCCCCCCNCC(P(=O)(O)O)P(=O)(O)O | 856 nM | 5130 nM | > 10000 nM | 868 nM | –
5 | CCCCCCCCCCCCNCC(P(=O)(O)O)P(=O)(O)O | 811 nM | 670 nM | 6230 nM | 93 nM | –
6 | CCCCCCCCCCCCCCNCC(P(=O)(O)O)P(=O)(O)O | > 1000 nM | > 10000 nM | 11300 nM | 292 nM | –
7 | CCCCCCCCCCCCCCCCNCC(P(=O)(O)O)P(=O)(O)O | – | 2190 nM | 4130 nM | – | –
8 | CCCCCCCCCCCCCCCCCCNCC(P(=O)(O)O)P(=O)(O)O | – | > 10000 nM | 5290 nM | – | –
9 | CCCCCCNCC(P(=O)(O)O)P(=O)(O)O | – | 840 nM | – | – | 9370 nM
10 | O=C(Cn1ccnc1[N+](=O)[O-])NCc1ccccc1 [BENZNIDAZOLE] | – | 2770 nM | – | – | –
